Measured values from patent US20090143335A1, “MODIFIED ABSORPTION FORMULATION OF GABOXADOL” (H. LUNDBECK A/S, priority 2007, published 2009).

Assay: Pharmacokinetics of gaboxadol in beagle dogs, IV or PO, with or without co-administered tryptophan
Type: in vivo
Details: dog; for bioavailability: Fa (bioavailability)
Protocol: Prior to commencement of the studies the protocols were approved by the Animal Welfare Committee, appointed by the Danish Ministry of Justice and all animal procedures were carried out in compliance with EC Directive 86/609/EEC, the Danish law regulating experiments on animals and NIH Guidelines for the Care and Use of Laboratory Animals. 6 full-grown male beagle dogs (body weight 15.9-21.7 kg) were selected and allocated into a roman quadrant design and assigned to receive all 6 formulations of gaboxadol hydrochloride randomly during 6 weeks. The dogs were fasted 20-24 hours before the initiation of the experiment and fed again 10 hours after the administration. The gaboxadol dose was given either as an intravenous injection (1.0 ml/kg) or as an oral solution given by gavage (5.0 ml/kg) directly into the stomach using a soft tube. All dogs received 2.5 mg/kg gaboxadol. In addition to gaboxadol, the oral formulations contained 0, 2.5, 10.0, 50.0 or 150.0 mg/kg of tryptophan to ensure simultaneous co-administration of the two compounds. All solutions were adjusted to a pH of 5.2 and osmolarity was checked with a Vapro vapour pressure osmometer (model 5520, Wescor Inc. Logan, Utah, USA), the intravenous solutions were adjusted to isoosmolarity with glucose. Blood samples of 2.0 ml were taken from the vena cephalica by individual vein puncture and collected into Eppendorf tubes containing 200 IE heparin as anticoagulant. Samples were collected before administration of gaboxadol and after 5, 15, 30, 60, 90 minutes and 2, 3, 4, 6, 8 and 10 hours after gaboxadol administration. The plasma was harvested immediately by centrifugation for 15 minutes at 2200 g and 4-8° C. and stored at −80° C. until further analysis. After each day of gaboxadol dosing the animals had 6 days of washout.
The pharmacokinetics (PK) was evaluated in WinNonlin. Plasma concentrations curves of the animals dosed intravenously were fitted to a 2-compartment model whereas the data from animals dosed orally were analysed in a non-compartment model. Statistical analysis was done in Sigma Stat.
Gaboxadol was extracted from plasma and HBSS^+ samples by liquid extraction. 100 μl HBSS^+ (80 μl purified water were added to the 20 μl samples) or 100 μl plasma samples were mixed with 25 μl intern standard (d4-gaboxadol) and 25 μl purified water. Protein precipitation was carried out by addition of 400 μl cold acetonitrile. After centrifugation at 10,000 g in 15 minutes, 425 μl supernatant was transferred to glass tubes and evaporated to dryness under nitrogen at 45° C. The samples were re-solved in 80 μl methanol/acetonitrile (30:70), whirl mixed for 10 minutes and centrifuged in 3 minutes at 3000 rpm, before transferal to medium well plates and placed at 10° C. in the autosampler. Gaboxadol concentration in the extracted samples was subsequently quantified by hydrophilic interaction chromatography (HILIC-chromatography) followed by MS/MS detection. The LC system comprised of an Agilent 1100 series pump and degasser, a CTC Analytics interface transferred data to the computer and a Peltier Thermostat and HTC Pal autosampler handled the samples. An Asahipak amino column, (NH2P-50, 150×2 mm) from Phenomenex was used for the chromatographic separation with a mobile phase of 20.0 mM ammoniumacetat pH=4:acetonitrile (30:70) and a flow rate of 0.2 ml/min. 20 μL samples were injected onto the column, which was kept at room temperature. The total runtime was 10 minutes with the first 5 minutes of elution let to waste. The elution time of gaboxadol on the column was approximately 8 minutes. The MS/MS system used consisted of a Sciex API 4000 MS/MS detector with a Turbo Ion Spray and Turbo V source (Applied Biosystems). The detection was performed in negative ionization mode where gaboxadol (precursor 139.1 Da, product 110.1 Da) and d4-gaboxadol (precursor 143.0, product 112.2 Da) were measured by multiple-reaction-monitoring (MRM). […]

[1] = male, beagle, in vivo, po, 2.5 mg/kg
[2] = male, beagle, in vivo, po, 10 mg/kg
[3] = male, beagle, in vivo, po, 50 mg/kg
[4] = male, beagle, in vivo, po, 150 mg/kg

Oc1noc2c1CCNC2 [gaboxadol, 4,5,6,7-tetrahydroisoxazolo [5,4-c]pyridine-3-ol]
decrease of maximal gaboxadol plasma concentration, Cmax, by tryptophan coadministration (PO 2.5 mg/kg gaboxadol, presence vs absence of 150 mg/kg tryptophan, p<0.001): 57% | ke (group A, IV 2.5 mg gaboxadol/kg, tryptophan 0 mg/kg): 1.02 ± 0.14 h⁻¹ | ke (group B, PO 2.5 mg gaboxadol/kg, tryptophan 0 mg/kg): 0.46 ± 0.02 h⁻¹ | ke (group C, PO 2.5 mg gaboxadol/kg, tryptophan 2.5 mg/kg): 0.50 ± 0.03 h⁻¹ | ke (group D, PO 2.5 mg gaboxadol/kg, tryptophan 10 mg/kg): 0.44 ± 0.03 h⁻¹ | ke (group E, PO 2.5 mg gaboxadol/kg, tryptophan 50 mg/kg): 0.50 ± 0.03 h⁻¹ | ke (group F, PO 2.5 mg gaboxadol/kg, tryptophan 150 mg/kg): 0.48 ± 0.07 h⁻¹ | effect of tryptophan coadministration on elimination rate constants (ke) and clearance (CL) of gaboxadol (in vivo, po): did not change | clearance (male, beagle, in vivo, iv, 2.5 mg/kg): 7.6 mL/min/kg | AUC (male, beagle, in vivo, iv, 2.5 mg/kg, AUC): 5620 ± 377 ng·h/mL | Cmax (male, beagle, in vivo, iv, 2.5 mg/kg, Cmax): 5490 ± 404 ng/mL | AUC [1]: 4760 ± 350 ng·h/mL | Cmax [1]: 2473 ± 178 ng/mL | Fa (bioavailability) [1]: 86.1% | Tmax [1]: 21 ± 7.8 min | AUC (male, beagle, in vivo, po, 2.5 mg/kg, AUC): 4720 ± 248 ng·h/mL | Cmax (male, beagle, in vivo, po, 2.5 mg/kg, Cmax): 2500 ng/mL | bioavailability [1]: 85.3 ± 5.7% | Tmax (male, beagle, in vivo, po, 2.5 mg/kg, Tmax): 27.6 min | CL [2]: 10.8 ± 0.983 mL/min/kg | AUC (male, beagle, in vivo, po, 10 mg/kg, AUC): 4030 ± 339 ng·h/mL | Cmax (male, beagle, in vivo, po, 10 mg/kg, Cmax): 1870 ± 114 ng/mL | bioavailability [2]: 75% | Tmax (male, beagle, in vivo, po, 10 mg/kg, Tmax): 32.4 ± 9 min | CL [3]: 9.82 ± 0.433 mL/min/kg | AUC (male, beagle, in vivo, po, 50 mg/kg, AUC): 4290 ± 211 ng·h/mL | Cmax (male, beagle, in vivo, po, 50 mg/kg, Cmax): 1660 ± 37 ng/mL | bioavailability [3]: 78.2 ± 6.3% | Tmax (male, beagle, in vivo, po, 50 mg/kg, Tmax): 27.6 ± 7.2 min | CL [4]: 11.7 ± 2.53 mL/min/kg | AUC (male, beagle, in vivo, po, 150 mg/kg, AUC): 4400 ± 801 ng·h/mL | Cmax (male, beagle, in vivo, po, 150 mg/kg, Cmax): 1420 ng/mL | bioavailability [4]: 79.7 ± 14.5% | Tmax (male, beagle, in vivo, po, 150 mg/kg, Tmax): 90 min
